Changes are numbered by the printed parent chain. Numbers in names are those of the source. Entries after “also recorded” stand apart in the source; their conditions may differ.
How the values were obtained:
[1] = molecular target: T1, Medicago truncatula NFP ectodomain (NFP-ECD, residues 28-246), wild type, SEQ ID NO: 1 (Medicago truncatula, UniProt Q0GXS4); test: Biolayer interferometry (BLI) binding of NFP / NFP-ECD to immobilized LCO and CO ligands; conditions: for Binding of mutated LCOs to NFP (in words): ligand binding tests, FIG. 3B
T1 construct: The Medicago truncatula NFP ectodomain (residues 28-246); AcMNPV gp67 signal peptide (replaces native signal peptide 1-27) (N); hexa-histidine tag (C); made in house; host or cells: Sf9 cells (Spodoptera frugiperda), baculovirus
Protocol: (§1) Expression and purification of Medicago NFP ectodomain: The Medicago truncatula NFP ectodomain (residues 28-246) was codon-optimized for insect cell expression (Genscript, Piscataway, USA) and cloned into the pOET4 baculovirus transfer vector (Oxford Expression Technologies). The native NFP signal peptide (residues 1-27, predicted by SignalP 4.1) was replaced with the AcMNPV gp67 signal peptide to facilitate secretion and a hexa-histidine tag was added to the C-terminus. Point mutants of NFP were engineered using site-directed mutagenesis. Recombinant baculoviruses were produced in Sf9 cells (Spodoptera frugiperda) using the FlashBac Gold kit (Oxford Expression technologies) according to the manufacturer's instructions with Lipofectin (ThermoFisher Scientific) as a transfection reagent. Protein expression was performed as follows. Suspension-cultured Sf9 cells were maintained with shaking at 299 K in serum-free MAX-XP (BD-Biosciences, discontinued) or HyClone SFX (GE Healthcare) medium supplemented with 1% Pen-Strep (10000 U/ml, Life technologies) and 1% CD lipid concentrate (Gibco). Protein expression was induced by adding recombinant passage 3 virus once the Sf9 cells reached a cell density of 1.0*10^7^6 cells/ml. After 5-7 days of expression, medium supernatant containing NFP ectodomains was harvested by centrifugation. This was followed by an overnight dialysis step against 50 mM Tris-HCl pH 8, 200 mM NaCl at 277 K. The NFP ectodomain was enriched by two subsequent steps of Ni-IMAC purification (HisTrap excel/HisTrap HP, both GE Healthcare). For crystallography experiments, N-glycans were removed using the endoglycosidase PNGase F (1:15 (w/w), room temperature, overnight). As a final purification step, NFP ectodomain was purified by SEC on a Superdex 200 10/300 or HiLoad Superdex 200 16/600 (both GE Healthcare) in phosphate buffered saline at pH 7.2 supplemented to a total of 500 mM NaCl (for binding assays) or 50 mM Tris-HCl, 200 mM NaCl (for crystallography). NFP ectodomain elutes as a single, homogeneous peak corresponding to a monomer. Point mutated versions of NFP were expressed and purified following the same protocol.
(§2) Biolayer interferometry (BLI): Binding of NFP and mutated versions of NFP to ligands was measured on an Octet RED 96 system (Pall ForteBio). The ligands used were LCO-IV (from S. meliloti), LCO-V (from S. meliloti), LCO-V (from M. loti), and C06 (from M. loti). S. meliloti LCO consists of a tetrameric/pentameric N-acetylglucosamine backbone that is 0-sulfated on the reducing terminal residue, 0-acetylated on the non-reducing terminal residue, and mono-N-acylated by unsaturated C16 acyl groups. M. loti LCO is a pentameric N-acetylglucosamine with a cis-vaccenic acid and a carbamoyl group at the non-reducing terminal residue together with a 2,4-O-acetylfucose at the reducing terminal residue. Biotinylated ligand conjugates were immobilized on streptavidin biosensors (kinetic quality, Pall ForteBio) at a concentration of 125-250 nM for 5 minutes. The binding assays using the S. meliloti ligands (LCO-IV and LCO-V) were replicated seven times, while the binding assays using the M loti ligands (LCO-V and C06) were replicated six times. Data analysis was performed in GraphPad Prism 6 software (GraphPad Software, Inc.). Equilibrium dissociation constants derived from the steady-state were determined by applying a non-linear regression (one site, specific binding) to the response at equilibrium plotted against the protein concentration. Kinetic parameters were determined by non-linear regression (association followed by dissociation) on the subtracted data.
(§3) Mutated lipochitooligosaccharide (LCO) ligands: S. meliloti LCO consists of a tetrameric/pentameric N-acetylglucosamine backbone that is O-sulfated on the reducing terminal residue, O-acetylated on the non-reducing terminal residue, and mono-N-acylated by unsaturated C16 acyl groups. […]

[2] = molecular target: T2, Medicago NFP ectodomain (NFP-ECD, WT) (Medicago truncatula, UniProt Q0GXS4); test: Biolayer interferometry (BLI) binding of NFP-ECD to immobilized biotinylated ligands; conditions: for reduction of binding to NFP-ECD compared to wild type S. meliloti LCO-IV: FIGS. 15D-15E; for binding to NFP of mutated LCOs: FIG. 3B, Example 4
T2 construct: The Medicago truncatula NFP ectodomain (residues 28-246) was codon-optimized; AcMNPV gp67 signal peptide (replaces native signal peptide 1-27) (N); made in house; host or cells: Sf9 (Spodoptera frugiperda), baculovirus, secreted into medium
T2 sequence (Q0GXS4 28-246): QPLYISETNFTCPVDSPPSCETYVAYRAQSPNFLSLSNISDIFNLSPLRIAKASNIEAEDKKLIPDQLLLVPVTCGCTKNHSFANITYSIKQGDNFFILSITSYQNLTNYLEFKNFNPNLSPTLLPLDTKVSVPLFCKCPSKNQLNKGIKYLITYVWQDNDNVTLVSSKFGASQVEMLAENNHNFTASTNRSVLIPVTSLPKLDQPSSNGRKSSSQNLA
Protocol: as §1, §2, §3

Medicago nfp mutants = test: Complementation assay (nodulation) by hairy root transformation; type: in vivo; conditions: for nodules per plant (complementation): 49 days after inoculation with S. meliloti strain 1021, FIG. 6A
Description: Complementation assay: Construct assembly, plant growth conditions, hairy root transformations, nodulation and ROS assays were generally conducted as described in Bozsoki et al. (2017) (Bozsoki Z, Cheng J, Feng F, Gysel K, Vinther M, Andersen KR, Oldroyd G, Blaise M, Radutoiu S, Stougaard J (2017) Receptor-mediated chitin perception in legume roots is functionally separable from Nod factor perception. Proc Natl Acad Sci 114: E8118-E8127). The tested transgenes were the mutated LysM receptors described in Example 5. In addition, NFP substitution variants replacing residues outside the hydrophobic patch in LysM2 (Q119F, K141E and T150H) or in LysM3 (T216F) were tested.

## CCCCCC/C=C\CCCCC/C=C/C(=O)N[C@H]1[C@H](O[C@H]2[C@H](O)[C@@H](NC(C)=O)[C@H](O[C@H]3[C@H](O)[C@@H](NC(C)=O)[C@H](O[C@H]4[C@H](O)[C@@H](NC(C)=O)C(O)O[C@@H]4COS(=O)(=O)O)O[C@@H]3CO)O[C@@H]2CO)O[C@H](CO)[C@@H](O)[C@@H]1O (stereo partly shown) [nodL-LCO-IV]
[1]
  Binding of mutated LCOs to NFP (in words): Dramatically reduced binding
[2]; BLI
  reduction of binding to NFP-ECD compared to wild type S. meliloti LCO-IV: more than 10 fold
[2]
  binding to NFP of mutated LCOs: Dramatically reduced binding

## CC(=O)N[C@H]1[C@H](O[C@H]2[C@H](O)[C@@H](NC(C)=O)[C@H](O[C@H]3[C@H](O)[C@@H](NC(C)=O)C(O)O[C@@H]3CO)O[C@@H]2CO)O[C@H](CO)[C@@H](O[C@@H]2O[C@H](CO)[C@@H](O[C@@H]3O[C@H](CO)[C@@H](O[C@@H]4O[C@H](CO)[C@@H](O)[C@H](O)[C@H]4NC(C)=O)[C@H](O)[C@H]3NC(C)=O)[C@H](O)[C@H]2NC(C)=O)[C@@H]1O (stereo partly shown) [M. loti C06]
[1]; BLI, FIG. 2B, six replicates
  Binding to NFP (in words): neither was NFP binding; also recorded: does not bind
[2]; BLI, FIG. 2B, six replicates
  NFP binding (BLI): not detected; also recorded: does not bind

## CCCCCC/C=C\CCCCCCCCCC(=O)N[C@H]1[C@H](O[C@H]2[C@H](O)[C@@H](NC(C)=O)[C@H](O[C@H]3[C@H](O)[C@@H](NC(C)=O)[C@H](O[C@H]4[C@H](O)[C@@H](NC(C)=O)C(O)O[C@@H]4COS(=O)(=O)O)O[C@@H]3CO)O[C@@H]2CO)O[C@H](COC(C)=O)[C@@H](O)[C@@H]1O (stereo partly shown) [nodFE-LCO-IV]
[1]; further BLI assays, FIGS. 15B-15E, analyte 1.56-100 μM
  Binding to NFP-ECD (in words): no significant binding
[1]
  Binding of mutated LCOs to NFP (in words): reduced NFP binding
[2]
  binding to NFP of mutated LCOs: reduced NFP binding
[2]; further BLI assays, FIGS. 15B-15E
  NFP-ECD binding (BLI): no significant binding

## CCCCCC/C=C\CCCCC/C=C/C(=O)N[C@H]1[C@H](O[C@H]2[C@H](O)[C@@H](NC(C)=O)[C@H](O[C@H]3[C@H](O)[C@@H](NC(C)=O)[C@H](O[C@H]4[C@H](O)[C@@H](NC(C)=O)C(O)O[C@@H]4CO)O[C@@H]3CO)O[C@@H]2CO)O[C@H](COC(C)=O)[C@@H](O)[C@@H]1O (stereo partly shown) [nodH-LCO-IV]
[1]
  Binding of mutated LCOs to NFP (in words): Dramatically reduced binding
[2]; BLI
  reduction of binding to NFP-ECD compared to wild type S. meliloti LCO-IV: more than 21 fold
[2]
  binding to NFP of mutated LCOs: Dramatically reduced binding

B1: wild type Nfp gene: wild type Medicago NFP LysM receptor transgene (SEQ ID NO: 1) (protein)
chain: MSAFFLPSSSHALFLVLMLFFLTNISAQPLYISETNFTCPVDSPPSCETYVAYRAQSPNFLSLSNISDIFNLSPLRIAKASNIEAEDKKLIPDQLLLVPVTCGCTKNHSFANITYSIKQGDNFFILSITSYQNLTNYLEFKNFNPNLSPTLLPLDTKVSVPLFCKCPSKNQLNKGIKYLITYVWQDNDNVTLVSSKFGASQVEMLAENNHNFTASTNRSVLIPVTSLPKLDQPSSNGRKSSSQNLALIIGISLGSAFFILVLTLSLVYVYCLKMKRLNRSTSSSETADKLLSGVSGYVSKPTMYEIDAIMEGTTNLSDNCKIGESVYKANIDGRVLAVKKIKKDASEELKILQKVNHGNLVKLMGVSSDNDGNCFLVYEYAENGSLEEWLFSESSKTSNSVVSLTWSQRITIAMDVAIGLQYMHEHTYPRIIHRDITTSNILLGSNFKAKIANFGMARTSTNSMMPKIDVFAFGVVLIELLTGKKAMTTKENGEVVILWKDFWKIFDLEGNREERLRKWMDPKLESFYPIDNALSLASLAVNCTADKSLSRPTIAEIVLCLSLLNQPSSEPMLERSLTSGLDAEATHVVTSVIAR
Medicago nfp mutants
  nodules per plant (complementation): 5 nodules per plant

B2: NFP L147D L154D: double-mutated NFP, leucine residues L147 and L154 replaced with aspartate (protein, UniProt Q0GXS4 28-246, looked up, variant L147D L154D)
extracellular domain: T2 sequence (Q0GXS4 28-246) with L120D, L127D
modifications: extracellular domain
notes: double-mutated NFP, leucine residues L147 and L154 replaced with aspartate
Medicago nfp mutants
  nodules per plant (complementation): did not develop any nodules
Medicago nfp mutants; S. medicae inoculation, 28 dpi, FIG. 6B
  complementation (nodulation): complements poorly

B3: Q119F: NFP substitution variant outside the hydrophobic patch in LysM2 (protein, UniProt Q0GXS4 28-595, looked up, variant Q119F)
Serine/threonine …: QPLYISETNFTCPVDSPPSCETYVAYRAQSPNFLSLSNISDIFNLSPLRIAKASNIEAEDKKLIPDQLLLVPVTCGCTKNHSFANITYSIKFGDNFFILSITSYQNLTNYLEFKNFNPNLSPTLLPLDTKVSVPLFCKCPSKNQLNKGIKYLITYVWQDNDNVTLVSSKFGASQVEMLAENNHNFTASTNRSVLIPVTSLPKLDQPSSNGRKSSSQNLALIIGISLGSAFFILVLTLSLVYVYCLKMKRLNRSTSSSETADKLLSGVSGYVSKPTMYEIDAIMEGTTNLSDNCKIGESVYKANIDGRVLAVKKIKKDASEELKILQKVNHGNLVKLMGVSSDNDGNCFLVYEYAENGSLEEWLFSESSKTSNSVVSLTWSQRITIAMDVAIGLQYMHEHTYPRIIHRDITTSNILLGSNFKAKIANFGMARTSTNSMMPKIDVFAFGVVLIELLTGKKAMTTKENGEVVILWKDFWKIFDLEGNREERLRKWMDPKLESFYPIDNALSLASLAVNCTADKSLSRPTIAEIVLCLSLLNQPSSEPMLERSLTSGLDAEATHVVTSVIAR
Medicago nfp mutants
  nodules per plant (complementation): did not affect nodulation

B4: K141E: NFP substitution variant outside the hydrophobic patch in LysM2 (protein, UniProt Q0GXS4 28-595, looked up, variant K141E)
Serine/threonine …: B3 Serine/threonine … with F92Q, K114E
Medicago nfp mutants
  nodules per plant (complementation): did not affect nodulation

B5: T150H: NFP substitution variant outside the hydrophobic patch in LysM2 (protein, UniProt Q0GXS4 28-595, looked up, variant T150H)
Serine/threonine …: B3 Serine/threonine … with F92Q, T123H
Medicago nfp mutants
  nodules per plant (complementation): did not affect nodulation

B6: T216F: NFP substitution variant in LysM3 (protein, UniProt Q0GXS4 28-595, looked up, variant T216F)
Serine/threonine …: B3 Serine/threonine … with F92Q, T189F
Medicago nfp mutants
  nodules per plant (complementation): did not affect nodulation

From patent US20210163976A1, “GENETICALLY ALTERED PLANTS EXPRESSING HETEROLOGOUS RECEPTORS THAT RECOGNIZE LIPO-CHITOOLIGOSACCHARIDES” (Aarhus Universitet, priority 2018, published 2021)
